In patent publication US20250325531A1, “TREATMENT OF SYSTOLIC DYSFUNCTION” (MyoKardia, Inc., priority 2024, published 2025):

What was measured:
Type in all cases: in vivo, human
healthy subjects = assay: Transthoracic echocardiography (TTE) pharmacodynamics after single ascending doses in healthy volunteers; settings: for SET, mean (SD) increase from Baseline: 1.5 to 2 hours postdose
Procedure: To assess pharmacodynamic effects, serial echocardiograms were performed. The sonographers used in the study completed Echo protocol training and submitted an example of a study for evaluation to the core laboratory for evaluation. The core TTE lab certified that the sonographer was able to perform the TTEs at a level satisfactory for obtaining the required protocol data.
These criteria were chosen to prevent subjects from having prolongation of SET that might lead to myocardial ischemia. Dose escalation stopping criteria also included observation of a Baseline-corrected, group mean relative increase of >20% in any 2 sequential TTE assessments in at least 2 measures of LV contractility: LVOT-VTI, LVFS, LVEF, or LVSV in subjects receiving Compound I. Placebo-controlled evaluation may have been considered. For this comparison, subjects who received placebo may have been pooled across cohorts.
PK and PD data were collected as described herein. […] Changes from Baseline at each postbaseline timepoint were assessed.
SET as determined by TTE was assessed using summary statistics. Observations and change from Baseline were summarized by treatment at each time point and the maximum change from Baseline determined for each subject. In addition, categorical analyses were performed on the number of subjects with a change from Baseline >50 msec and the number of subjects with a change from Baseline >75 msec in 1 or any 2 sequential TTE assessments. The relationship to Compound I plasma concentration to SET was explored. An analysis of SET placebo-adjusted change from Baseline was also performed.
As the Cmax occurred at between 4 and 6 hours in most of the subjects, the TTE obtained at 6 hours postdose was considered the best timepoint to explore the relationship between concentration and pharmacological effect. TTEs obtained at 1.5 and 3 hours after dosing were before the Cmax and at 9 hours were after the peak Cmax. Based on the preclinical data, it was considered unlikely that there would be a prolonged lag between the Cmax and peak pharmacological effect. As the exposure after the administration of the 350 mg and 525 mg doses were very similar, it was decided to not only present the results from these groups separately, but also to combine the data from these groups. By combining the data from the 2 groups, the number of subjects dosed was increased from 6 to 12, thus increasing the power to observe a statistically significant change from Baseline in the TTE parameters of interest.

[1] = test system: patients with stable HFrEF; assay: TTE pharmacodynamics in SAD cohorts, patients with stable HFrEF; settings: Pooled SAD Cohorts 1 and 2
Procedure: PD assessment was done by transthoracic echocardiography as described in Example 1 above. TTE evaluations of LVSV (derived from LVOT-VTI), LVEF, LVFS, SET, and other parameters were PD assessments at predetermined time points. The patients were on bed rest for 10 minutes before the TTEs were obtained. In Part 2 (MAD), TTEs were usually obtained before the morning dose and/or at 7 hours postdose (i.e., close to the anticipated peak effect based on the PK profile from the healthy volunteer studies).
For both Cohorts 1 and 2, the pharmacodynamic effects of Compound I on echocardiographic markers of cardiac structure and function were analyzed by Compound I plasma concentration groups: <2000 ng/ml (low concentration group) and ≥2000 ng/ml (high concentration group) (Table 12).

[2] = test system: patients with stable HFrEF; assay: TTE pharmacodynamics in MAD cohorts, patients with stable HFrEF; settings: plasma concentration group <2000 ng/mL (n = 30); LS mean difference vs placebo
Procedure: During the study, multiple evaluations were performed that included: serial TTE assessments (11-14 TTEs per patient on Days 1, 2, 3, 4, 7, 9, 10 and 11); PK sampling (PK sample collected concomitantly with every post-randomization echocardiogram); ECGs (on Days 2, 3, 4, 7, 9, 10, 11 and 16); troponin (collected concomitantly with every post-randomization ECG); and safety laboratory assessments. Confined patients underwent continuous telemetry. Holter monitoring was performed in all patients at baseline (Days 1-2) and at the end of double-blind treatment (Days 7-9). Vital signs were collected daily.
PD assessment was done by transthoracic echocardiography as described in Example 1 above. TTE evaluations of LVSV (derived from LVOT-VTI), LVEF, LVFS, SET, and other parameters were PD assessments at predetermined time points. The patients were on bed rest for 10 minutes before the TTEs were obtained. […]
The pharmacodynamic effects of Compound I on echocardiographic markers of cardiac structure and function were analyzed by Compound I plasma concentration groups: <2000 ng/mL (lower concentration group), 2000-3500 ng/ml (medium concentration group) and >3500 ng/ml (higher concentration group) (Table 16) and with PK-PD scatterplots (FIGS. 9A-9C). […]

[3] = 6 hours postdose, plasma concentration bin 0-1000 ng/mL (n = 29)
[4] = 6 hours postdose, plasma concentration bin 1001-2000 ng/mL (n = 9)
[5] = 6 hours postdose, plasma concentration bin >2000 ng/mL (n = 10)
[6] = plasma concentrations >2000 ng/ml, 6 hours postdose
[7] = plasma concentration group <2000 ng/mL (n = 7)
[8] = plasma concentration group ≥2000 ng/mL (n = 12)

## Cn1cc(S(=O)(=O)[C@@](C)(F)C2CCN(C(=O)Nc3ccon3)CC2)c(C(F)F)n1 [Compound I, (R)-4-(1-((3-(difluoromethyl)-1-methyl-1H-pyrazol-4-yl)sulfonyl)-1-fluoroethyl)-N-(isoxazol-3-yl) piperidine-1-carboxamide]
Healthy subjects; 350 mg and 525 mg combined
  SET, mean (SD) increase from Baseline: 18.0 (19.5) msec
Healthy subjects; 350 mg
  SET, mean (SD) increase from Baseline: 19.2 (20.5) msec
Healthy subjects; [3]
  DBP, placebo-corrected LS mean difference of change from Baseline: 2.277 mm Hg
  E/A ratio, placebo-corrected LS mean difference of change from Baseline: 0.150
  HR, placebo-corrected LS mean difference of change from Baseline: −1.070 bpm
  LVEDD, placebo-corrected LS mean difference of change from Baseline: −0.014 cm
  LVESD, placebo-corrected LS mean difference of change from Baseline: 0.025 cm
  LVFS, placebo-corrected LS mean difference of change from Baseline: −0.560%
  MPI, placebo-corrected LS mean difference of change from Baseline: −0.007
  SBP, placebo-corrected LS mean difference of change from Baseline: −0.623 mm Hg
Healthy subjects; [4]
  DBP, placebo-corrected LS mean difference of change from Baseline: 2.937 mm Hg
  HR, placebo-corrected LS mean difference of change from Baseline: 0.336 bpm
  LVEDD, placebo-corrected LS mean difference of change from Baseline: −0.041 cm
  LVEDV, placebo-corrected LS mean difference of change from Baseline: -6.100 mL
  MPI, placebo-corrected LS mean difference of change from Baseline: −0.021
  SBP, placebo-corrected LS mean difference of change from Baseline: 1.132 mm Hg
Healthy subjects; [5]
  DBP, placebo-corrected LS mean difference of change from Baseline: 1.540 mm Hg
  E/A ratio, placebo-corrected LS mean difference of change from Baseline: −0.047
  E/e′(lateral), placebo-corrected LS mean difference of change from Baseline: −0.063
  HR, placebo-corrected LS mean difference of change from Baseline: 2.871 bpm
  MPI, placebo-corrected LS mean difference of change from Baseline: 0.033
  SBP, placebo-corrected LS mean difference of change from Baseline: −1.572 mm Hg
Healthy subjects; echocardiographic measures
  plasma concentrations at which PD effects were discernable: ≥ 1000 ng/mL
Healthy subjects; [6]
  IVRT (mitral inflow doppler), placebo-corrected LS mean difference: 12.0 ms
  stroke volume, placebo-corrected LS mean difference±SE: 8.20 ± 3.99 mL
[1]; [7]
  A wave peak, placebo-corrected mean change from Baseline (LS mean difference): -3.2 cm/s
  E wave peak, placebo-corrected mean change from Baseline (LS mean difference): -1.1 cm/s
  E/A ratio, placebo-corrected mean change from Baseline (LS mean difference): 0.09
  E/e′ lateral, placebo-corrected mean change from Baseline (LS mean difference): 0.6
  LVEDD, placebo-corrected mean change from Baseline (LS mean difference): 0.2 mm
  LVEDV, placebo-corrected mean change from Baseline (LS mean difference): -2.5 mL
  LVEF, placebo-corrected mean change from Baseline (LS mean difference): 4.1%
  LVESD, placebo-corrected mean change from Baseline (LS mean difference): −1.3 mm
  LVESV, placebo-corrected mean change from Baseline (LS mean difference): -4.0 mL
  LVFS, placebo-corrected mean change from Baseline (LS mean difference): 3.1%
  LVGLS, placebo-corrected mean change from Baseline (LS mean difference): −1.1%
  LVSV, placebo-corrected mean change from Baseline (LS mean difference): 1.0 mL
  SET, placebo-corrected mean change from Baseline (LS mean difference): 8 ms
  e′ lateral, placebo-corrected mean change from Baseline (LS mean difference): -1 cm/s
[1]; [8]
  A wave peak, placebo-corrected mean change from Baseline (LS mean difference): -8.8 cm/s
  E wave peak, placebo-corrected mean change from Baseline (LS mean difference): -1.6 cm/s
  E/A ratio, placebo-corrected mean change from Baseline (LS mean difference): 0.08
  E/e′ lateral, placebo-corrected mean change from Baseline (LS mean difference): 0.2
  LVEDD, placebo-corrected mean change from Baseline (LS mean difference): −0.3 mm
  LVEDV, placebo-corrected mean change from Baseline (LS mean difference): -1.9 mL
  LVEF, placebo-corrected mean change from Baseline (LS mean difference): 4.4%
  LVESD, placebo-corrected mean change from Baseline (LS mean difference): −1.8 mm
  LVESV, placebo-corrected mean change from Baseline (LS mean difference): -3.5 mL
  LVFS, placebo-corrected mean change from Baseline (LS mean difference): 2.8%
  LVGLS, placebo-corrected mean change from Baseline (LS mean difference): −2.1%
  LVSV, placebo-corrected mean change from Baseline (LS mean difference): 9.0 mL
  SET, placebo-corrected mean change from Baseline (LS mean difference): 36 ms
  e′ lateral, placebo-corrected mean change from Baseline (LS mean difference): -1 cm/s
[2]
  E/e′ (lateral), mean change from baseline (placebo-corrected): 0.8
